Measurements published in US12434076B2, “Low energy immune priming for treating cancer and metastasis” (priority 2017, dated 2025).

Tests used:
TPSA23 tumor cells = assay: Clonogenic assay, TPSA23; format: cell-based, murine
[1] = system: human hepatocellular carcinoma cell lines (HepG2, Hep3B, Huh7); assay: Cell growth and cell death of human HCC cell lines (LOFU, WP1066); format: cell-based; conditions: WP1066 added prior LOFU treatment
RM1 tumor = RM1 tumor growth in C57Bl/6 mice (LOFU, 17AAG); format: in vivo, mouse; conditions: for tumor volume: intraperitoneal, three times a week, untreated tumor 1879±98.65 mm^3
Experimental: (§1) This protocol yielded an approximate in situ spatial-peak temporal-average acoustic intensity of 270 W/cm^2, resulting in estimated average infra-tumoral temperature elevation of 3.2° C. Post-treatment, there were no signs of normal tissue toxicity such as alopecia, thermal damage, or skin wounds. […] Control mice were injected with equal volume of the vehicle DMSO, which was used to solubilize 17AAG.
(§2) Tumor model and treatment; C57Bl/6 and BalbC nu/nu mice were injected subcutaneously with 1×10^5 RM-1 (murine prostate cancer cell line) and 1×10^6 PC3 (human prostate cancer cell line) cells on the flank, respectively. Approximately 10 days later, the tumor became palpable (3-5 mm in diameter), whereupon LOFU treatment was initiated. […] Palpable tumors were treated with LOFU every 3-4 days for five fractions administered over two weeks. Animals received 17AAG three times a week during this time. Tumor volume measurements were performed twice weekly using Vernier calipers along with simultaneous physical assessment of signs of systemic toxicity (malaise and diarrhea).

[2] = Toxicity and dose finding of 17AAG in mice; format: in vivo, mouse
Experimental: as §1
Thus, these dose levels were selected for the current study. The goal was to combine two therapies that are nontoxic, albeit subtherapeutic, and examine whether the combination can be therapeutic. […] To detect the level of ER stress, the expression levels of ER chaperones, ERp44, ERp57, and ERp72 were quantitated among different treatment groups. ERp44 is responsible for oxidative protein folding. ERp57 is an ER resident thiol disulfide oxidoreductase while Erp72 is a disulfide isomerase. All these proteins participate in the protein folding machinery of the ER.
as §2
Kaplan-Meier Survival analysis: Mice survival/mortality in different treatment groups was analyzed by Kaplan-Meier as a function of radiation dose using Sigma-Plot and GraphPad Prism (version 4.0 for OS X, San Diego, CA, USA) software.

With CNC(=O)c1ccc(N2C(=S)N(c3cnc(C#N)c(C(F)(F)F)c3)C(=O)C23CCC3)cc1F [apalutamide] the “clonogenicity (colonies)” value (TPSA23 tumor cells; 5 μM apalutamide in combination with LOFU, vs apalutamide or LOFU alone) was “significantly fewer colonies”, the clonogenicity (TPSA23 tumor cells; 10 μM apalutamide alone) was “significant reduction in clonogenicity” and the clonogenicity (TPSA23 tumor cells; 10 μM apalutamide in combination with LOFU) was “still more effective”.

For C[C@H](NC(=O)/C(C#N)=C/c1cccc(Br)n1)c1ccccc1 [WP1066], the inducing cell death [1] was “superior effect on inducing cell death”.

For C=CCNC1=C2C[C@@H](C)C[C@H](OC)[C@H](O)[C@@H](C)/C=C(\C)[C@H](OC(N)=O)[C@@H](OC)/C=C\C=C(/C)C(=O)NC(=CC1=O)C2=O [17AAG, 17-N-allylamino-17-demethoxygeldanamycinan], the “average estimated tumor growth slower compared to control group” value (RM1 tumor; 17AAG 25 mg/kg body weight) was 9%, the “interval within which all animals achieved tumor size 2000 mm^3” value (RM1 tumor; 17AAG 25 mg/kg body weight) was 26 to 30 days and the tumor volume (RM1 tumor; 17AAG 50 mg/kg b.w.) was 964 mm3. The tumor volume (RM1 tumor; 17AAG 75 mg/kg b.w.) was 485±24.25 mm3, the “death of mice (Kaplan Meier survival analysis)” value ([2]; 75 mg/kg of body weight, after 21 days of treatment, C57Bl/6 mice) was 50% and the “low dose found to be nontoxic” value ([2]; Balb/c nude mice) was 14 mg/kg. The “low dose found to be nontoxic” value ([2]; C57Bl/6 mice) was 25 mg/kg and the “normal tissue toxic effect” value ([2]; low dose 17AAG 25 mg/kg body weight) was “did not show any normal tissue toxic effect”.
